The values that follow come from patent US7705119B1, “Compositions and methods useful for treating circulatory and hypovolemic shock” (University of Kentucky Research Foundation, priority 2007, dated 2010).

“Also recorded” adds a separate entry of the source. Square brackets hold non-standard residues; d marks the D form. Peptide text beside a SMILES is read from it.

The subject of data set [1] is Sprague-Dawley rats. Put plainly: 30 minute inhibitor pre-treatment before 5.5 mg/kg Delt-E post hemorrhage injection. Type of data set: in vivo, rat. The following applies: for Maximum HR in BPM ± S.E. / Maximum MAP in mmHg ± S.E. / Survival Time in minutes ± S.E.: then 5.5 mg/kg Delt-E post hemorrhage. The text has this: The hemorrhagic shock model used was a volume-controlled model similar to that of Summers et al. Acad Emerg Med. 10:587-93 (2003). Forty-six male Sprague-Dawley rats (about 341-411 grams) were acclimated to a laboratory environment for a week. In dwelling heparinized PE 10 catheters were placed in the femoral artery and the femoral vein of anesthetized rats. The two catheters were combined and exited suprascapularly, tied in place with braided silk, and covered with a piece of hypoallergenic mesh to prevent kinking. Rats were then placed in recovery cages for 24 hr, allowed access to food and water, and allowed unrestricted access to both catheters. The femoral artery catheter was used for volume-controlled hemorrhage and blood pressure measurements and the femoral vein catheter was used for Delt-E infusion. Each selected animal was randomly assigned 1 of […] post hemorrhage treat groups: 1 mL/100 g saline control (n=6), 2.85 mg/kg Delt-E (n=6), 4.2 mg/kg Delt-E (n=6), 5.5 mg/kg Delt-E (n=6), and 14 mg/kg Delt-E (n=6). Animals were also selected and randomly assigned to 1 of 4, 30-minute pre-treatment inhibitor groups: Naltriben Methane Sulfonate (NTB) (n=4), Naltrexone (n=4), Glibenclamide (n=4), and 7-Dehydrobenzylidine naltrexone (BNTX) (n=4) followed by a 5.5 mg/kg injection of Delt-E.
Opioid Inhibitors: The opioid inhibitors (naltrexone, naltriben methane sulfonate (NTB) and 7 Dehydrobenzylidine naltrexone (BNTX) and Glibenclamide were administered 30 minutes prior to hemorrhage. MAP and HR were recorded continuously before hemorrhage to ensure no adverse affects on MAP or HR occurred as a result of the pre-injection. At the end of 30 minutes, volume-controlled hemorrhage was induced followed by a post hemorrhage injection of 5.5 mg/kg Delt-E, the optimal dose found to increase hemodynamic stability. Naltrexone (10 mg/kg, Sigma-Aldrich), NTB (1 mg/kg, Sigma-Aldrich), and BNTX (1 mg/kg, Tocris Bioscience) were used as 30 minute pre-injection opioid receptor antagonists. Glibenclamide (10 mg/kg, Sigma Aldrich) was used as a KATP channel blocker.
Data Analysis: Statistical analysis was preformed using SPSS software with P value <0.05 being considered significant. The survival, MAP, HR and lactic acid values were analyzed using repeated measures analysis of variance (ANOVA) between groups to identify differences between groups. To evaluate differences between means, the ANOVA with post hoc least square differences were used (LSD analysis).

Data set [2] deals with Sprague-Dawley rats. As to the kind of experiment: Post hemorrhage Delt-E infusion, volume-controlled hemorrhagic shock model without fluid resuscitation. In kind it is in vivo, rat. As to conditions: 14.0 mg/kg i.v. post hemorrhage. From the text:
A murine hemorrhagic shock model was used to evaluate the effects of administration of Deltorphin-E (Delt-E), without concomitant fluid resuscitation, on hemodynamic status, plasma lactate levels, and survival rates.
The hemorrhagic shock model used was a volume-controlled model similar to that of Summers et al. Acad Emerg Med. 10:587-93 (2003). Forty-six male Sprague-Dawley rats (about 341-411 grams) were acclimated to a laboratory environment for a week. In dwelling heparinized PE 10 catheters were placed in the femoral artery and the femoral vein of anesthetized rats. […]
Treatment: Twenty-four hours after catheter placement, test rats (n=24) were infused in the femoral vein with either 2.85, 4.2, 5.5 or 14 mg/kg of Delt-E (Tyr-D-Ala-Phe-Ala-Ile-Gly-Asp-Phe-Ser-Ile-NH2; SEQ ID NO: 1) dissolved in 1.0 ml Lactated Ringers (LR) solution pH 7.4. […] Prior to hemorrhage MAP and HR were recorded to establish baseline levels. […] After the final mL of blood was removed the various venous catheter treatment injections were administered, MAP and HR were recorded continuously for the duration of survival or up to 6 hours.
Biomarker protocols: Survival time was determined by the post hemorrhage time after injection until death, or a predetermined 360 minute survival interval. […] Pulse pressure was determined by the difference (mmHg) between the systolic and diastolic pressure during a single cardiac cycle. […]

For data set [3], the system named is KATP channels. As to conditions: Wild et al. 1991; cited from earlier work.
The mark [4] stands for this setting: inhibitor 1 mg/kg 30 min prior to hemorrhage.
[5] abbreviates: inhibitor 10 mg/kg 30 min prior to hemorrhage.

With `O=C1/C(=C/c2ccccc2)C[C@@]2(O)[C@H]3Cc4ccc(O)c5c4[C@@]2(CCN3CC2CC2)[C@H]1O5` [BNTX, 7-Dehydrobenzylidine naltrexone], in data set [1] (setting [4]), the “blockade of post hemorrhage hemodynamic recovery / survival benefits of 5.5 mg/kg Delt-E” value is reported as “did not block”, the “Maximum HR in BPM ± S.E.” value turned out to be 400 ± 77 BPM, the “Maximum MAP in mmHg ± S.E.” value is reported as 55 ± 12 mmHg and the “Survival Time in minutes ± S.E.” value is 356 ± 3 min.
Consider `CC[C@H](C)[C@H](NC(=O)[C@H](CO)NC(=O)[C@H](Cc1ccccc1)NC(=O)[C@H](CC(=O)O)NC(=O)CNC(=O)[C@@H](NC(=O)[C@H](C)NC(=O)[C@H](Cc1ccccc1)NC(=O)[C@@H](C)NC(=O)[C@@H](N)Cc1ccc(O)cc1)[C@@H](C)CC)C(N)=O` [Delt-E, Tyr-(D-Ala)-Phe-Ala-Ile-Gly-Asp-Phe-Ser-Ile-NH2] (H-Y[dA]FAIGDFSI-NH2), for which the Toxicity of dose result in data set [2] is recorded as “toxic”.
Regarding `COc1ccc(Cl)cc1C(=O)NCCc1ccc(S(=O)(=O)NC(=O)NC2CCCCC2)cc1` [Glibenclamide], in data set [1] (setting [5]), the “blockade of post hemorrhage hemodynamic recovery / survival benefits of 5.5 mg/kg Delt-E” value is reported as “did not alter the survival advantage; also recorded: not blocked”, the “Maximum HR in BPM ± S.E.” value stood at 393 ± 43 BPM, the “Maximum MAP in mmHg ± S.E.” value is 56 ± 10 mmHg and the “Survival Time in minutes ± S.E.” value was 347 ± 15 min.
Turning to `Oc1ccc2c3c1O[C@H]1c4oc5ccccc5c4C[C@@]4(O)[C@@H](C2)N(CC2CC2)CC[C@]314` [NTB, Naltriben Methane Sulfonate], in data set [1] (setting [4]), the “blockade of post hemorrhage hemodynamic recovery / survival benefits of 5.5 mg/kg Delt-E” value is “blocked”, the “Maximum HR in BPM ± S.E.” value was determined as 423 ± 68 BPM, the “Maximum MAP in mmHg ± S.E.” value is on record as 37 ± 13 mmHg and the “Survival Time in minutes ± S.E.” value stood at 58 ± 12 min.
For `O=C1CC[C@@]2(O)[C@H]3Cc4ccc(O)c5c4[C@@]2(CCN3CC2CC2)[C@H]1O5` [Naltrexone], in data set [1] (setting [5]), the “blockade of post hemorrhage hemodynamic recovery / survival benefits of 5.5 mg/kg Delt-E” value is reported as “partially blocked”, the “Maximum HR in BPM ± S.E.” value is 419 ± 75 BPM, the “Maximum MAP in mmHg ± S.E.” value is given as 49 ± 8 mmHg and the “Survival Time in minutes ± S.E.” value was 95 ± 11 min.
For the compound DPDPE, the “cardioprotective effect in the presence of Glibenclamide” value in data set [3] is given as “could be negated by Glibenclamide”.
